In patent EP4745134A1 (Jiangsu Yahong Meditech Co., Ltd., priority 2023, dated 2025):
Where two headings read alike, the source gives them in different places.

Experiments:
HCT116-WT cells = experiment: Inhibitory activity against cell proliferation (CellTiter Glo, 6 days), HCT116-WT; format: cell-based; conditions: 144 h, HCT116-WT cells, 6 days, CellTiter Glo; read-out: HCT116-WT IC50
In short: (§1)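 Viability is measured by CellTiter Glo luminescence on day 7, following a 6-day treatment with compounds serially diluted 4-fold over 8 points from 10000 nM. Both lines are plated at 250 cells per well and cultured overnight beforehand.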

PRMT5-MTA = PRMT5-MTA (Homo sapiens, UniProt O14744); experiment: Enzymatic inhibitory activity against PRMT5-MTA (AlphaScreen); format: biochemical
In short: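 PRMT5/[…] (1 nM) was preincubated for 30 min at room temperature with 1 µM […] and 2.5 µM SAM, then exposed to compound (10-point, 3-fold from 1000 nM) for 15 min at 23 °C. Histone H4 substrate (5 nM) was added and reacted for 45 min at 23 °C. Symmetric dimethyl-R3 H4 was detected by AlphaScreen and IC50 calculated.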

HCT116 MTAP KO cells = experiment: Inhibitory activity against cell proliferation (CellTiter Glo, 6 days), HCT116 MTAP KO; format: cell-based; conditions: for IC50: Homo sapiens, HCT-116, 144 h, HCT116 MTAP KO cells, 6 days, CellTiter Glo, read-out: HCT116 MTAP KO IC50; for Selectivity HCT 116-WT/ HCT116 MTAP KO: ratio of IC50 HCT116-WT / HCT116 MTAP KO
In short: as §1

PRMT5-MTA, sequence (O14744 whole entry): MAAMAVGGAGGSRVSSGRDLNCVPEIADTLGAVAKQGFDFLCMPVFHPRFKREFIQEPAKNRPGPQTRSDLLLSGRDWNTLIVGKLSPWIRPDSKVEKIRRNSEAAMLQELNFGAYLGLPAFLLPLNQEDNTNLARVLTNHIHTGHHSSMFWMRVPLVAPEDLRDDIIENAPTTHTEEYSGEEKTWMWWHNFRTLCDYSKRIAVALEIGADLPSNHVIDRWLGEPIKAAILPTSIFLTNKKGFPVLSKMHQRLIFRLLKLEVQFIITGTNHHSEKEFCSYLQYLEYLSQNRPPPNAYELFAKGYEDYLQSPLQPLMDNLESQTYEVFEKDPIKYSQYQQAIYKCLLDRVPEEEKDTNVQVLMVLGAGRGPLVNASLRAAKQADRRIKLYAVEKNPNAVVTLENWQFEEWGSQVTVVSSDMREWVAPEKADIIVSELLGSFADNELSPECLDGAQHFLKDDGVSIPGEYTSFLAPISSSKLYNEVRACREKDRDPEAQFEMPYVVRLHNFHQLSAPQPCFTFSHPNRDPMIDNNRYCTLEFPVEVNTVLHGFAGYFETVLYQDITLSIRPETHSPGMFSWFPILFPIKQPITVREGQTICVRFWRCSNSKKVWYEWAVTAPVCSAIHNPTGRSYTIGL
PRMT5-MTA, sequence (Q9BQA1 whole entry partner): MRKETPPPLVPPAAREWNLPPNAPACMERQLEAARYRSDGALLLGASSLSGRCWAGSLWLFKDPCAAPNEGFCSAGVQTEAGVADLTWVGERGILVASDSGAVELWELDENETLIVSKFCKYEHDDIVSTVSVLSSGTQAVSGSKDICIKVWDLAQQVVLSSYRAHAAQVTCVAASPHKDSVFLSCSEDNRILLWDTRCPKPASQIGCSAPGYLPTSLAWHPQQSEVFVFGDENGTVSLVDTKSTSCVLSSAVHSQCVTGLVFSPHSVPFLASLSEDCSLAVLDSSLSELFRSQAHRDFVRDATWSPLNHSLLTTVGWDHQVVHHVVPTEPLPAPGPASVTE

| Compound | IC50 (HCT116-WT cells) | IC50 (PRMT5-MTA) | IC50 (HCT116 MTAP KO cells) | Selectivity HCT 116-WT/ HCT116 MTAP KO (HCT116 MTAP KO cells) | IC50 (PRMT5-MTA; read-out: IC50) |
| --- | --- | --- | --- | --- | --- |
| CN(C(=O)c1cc2c(cc1F)nc(N)c1cnn(C)c12)N1CCc2nc(Br)ccc21 [Example 32, 4-amino-N-(5-bromo-2,3-dihydro-1H-pyrrolo[3,2-b]pyridin-1-yl)-7-fluoro-N,1-dimethy 1-1H-pyrazolo[4,3-c]quinoline-8-carboxamide] | 3640 nM | 2.5 nM | 122 nM | 29.85 |  |
| Cc1cc2cc(C(=O)N(Cc3ccc(C(F)(F)F)cn3)N(C)c3nccs3)ccc2nc1N [Example 33, 2-amino-N',3-dimethyl-N'-(thiazol-2-yl)-N-((5-(trifluoromethyl)pyridin-2-yl)methyl)quinoline-6-carbohydrazide] | 2480 nM |  | 125 nM | 19.87 | 3.3 nM |
| Cc1cc2cc(C(=O)N(Cc3ccc(C(F)(F)F)cn3)N(C)c3cnccn3)ccc2nc1N [Example 34, 2-amino-N',3-dimethyl-N'-(pyrazin-2-yl) -N-((5-(trifluoromethyl)pyridin-2-yl)methyl)quinoline-6-carbohydrazide] | 1270 nM |  | 58 nM | 21.90 | 1.5 nM |
| COc1cnc(N(C)N(Cc2ccc(C(F)(F)F)cn2)C(=O)c2ccc3nc(N)c(C)cc3c2)nc1 [Example 39, 2-amino-N'-(5-methoxypyrimidin-2-yl)-N',3-dimethyl-N-((5-(trifluoromethyl)pyridin-2-yl)methyl)quinoline-6-carbohydrazide] | 3750 nM |  | 235 nM | 15.95 | 2.7 nM |
| Cc1cc2cc(C(=O)N(Cc3ccc(C(F)(F)F)cn3)N(C)c3nccc(C(F)(F)F)n3)ccc2nc1N [Example 40, 2-amino-N',3-dimethyl-N-((5-(trifluoromethyl)pyridin-2-yl)methyl)-N'-(4-(trifluor omethyl)pyrimidin-2-yl)quinoline-6-carb ohydrazide] | 2590 nM |  | 83 nM | 31.19 | 1.7 nM |
| Cc1cc2cc(C(=O)N(Cc3ccc(C(F)(F)F)cn3)N(C)c3nccc4occc34)ccc2nc1N [Example 42, 2-amino-N'-(furo[3,2-c]pyridin-4-yl)-N', 3-dimethyl-N-((5-(trifluoromethyl)pyridin-2-yl)methyl)quinoline-6-carbohydrazide] | 2650 nM |  | 49 nM | 54.14 | 3 nM |
| Cc1cc2cc(C(=O)N(Cc3ccc(Br)cn3)N(C)c3ncccc3F)ccc2nc1N [Example 48, 2-amino-N-((5-bromopyridin-2-yl)methyl)-N'-(3-fluoropyridin-2-yl)-N',3-dimethyl quinoline-6-carbohydrazide] | 466 nM |  | 13 nM | 35.85 | 3.7 nM |
| Cc1ccnc(N(C)N(Cc2ccc(C(F)(F)F)cn2)C(=O)c2ccc3nc(N)c(C)cc3c2)n1 [Example 49, 2-amino-N',3-dimethyl-N'-(4-methylpyrimidin-2-yl)-N-((5-(trifluoromethyl)pyridin-2-yl)methyl)quinoline-6-carbohydrazide] | 1770 nM |  | 80 nM | 22.18 | 2.2 nM |
| Cc1cc2cc(C(=O)N(Cc3ccc(C(F)(F)F)cn3)N(C)c3ncc(Br)cn3)ccc2nc1N [Example 50, 2-amino-N'-(5-bromopyrimidin-2-yl)-N', 3-dimethyl-N-((5-(trifluoromethyl)pyridin-2-yl)methyl)quinoline-6-carbohydrazide] | 3800 nM |  | 219 nM | 17.33 | 2.1 nM |
| Cc1cc2cc(C(=O)N(Cc3ccc4ccccc4n3)N(C)c3ncccn3)ccc2nc1N [Example 51, 2-amino-N',3-dimethyl-N'-(pyrimidin-2-yl)-N-(quinolin-2-ylmethyl)quinoline-6-carbohydrazide] | 2060 nM |  | 116 nM | 17.78 | 1.7 nM |
| CN(c1ccccc1)N(Cc1ccc(C(F)(F)F)cn1)C(=O)c1ccc2nc(N)c3cnn(C)c3c2c1 [Example 52, 4-amino-N',1-dimethyl-N'-phenyl-N-((5-(trifluoromethyl)pyridin-2-yl)methyl)-1H-pyrazolo[4,3-c]quinoline-8-carbohydrazide] | 417 nM |  | 13 nM | 32.08 | 3.7 nM |
| Cc1cc2cc(C(=O)N(Cc3ccc(C(F)(F)F)cn3)N(C)c3ncccc3C(F)(F)F)ccc2nc1N [Example 53, 2-amino-N',3-dimethyl-N'-(3-(trifluoromethyl)pyridin-2-yl)-N-((5-(trifluoromethy 1)pyridin-2-yl)methyl)quinoline-6-carbohydrazide] | 2280 nM |  | 90 nM | 25.34 | 1.5 nM |
| Cc1cc2cc(C(=O)N(Cc3ccc(C(F)(F)F)cn3)Nc3ncccc3F)ccc2nc1N [Example 56, 2-amino-N'-(3-fluoropyridin-2-yl)-3-met hyl-N-((5-(trifluoromethyl)pyridin-2-yl)methyl)quinoline-6-carbohydrazide] | 3330 nM |  | 139 nM | 23.99 | 3.5 nM |
| Cc1cc2cc(C(=O)N(Cc3ccc(C(F)(F)F)cn3)N(C)c3ncc(OC(F)F)cn3)ccc2nc1N [Example 57, 2-amino-N'-(5-(difluoromethoxy)pyrimidin-2-yl)-N',3-dimethyl-N-((5-(trifluoromethyl)pyridin-2-yl)methyl)quinoline-6-carbohydrazide] | 5640 nM |  | 490 nM | 11.51 | 1.9 nM |
| Cc1cc2cc(C(=O)N(Cc3ccc(C(F)(F)F)cn3)N(C)c3ncc(C#N)cn3)ccc2nc1N [Example 58, 2-amino-N'-(5-cyanopyrimidin-2-yl)-N',3-dimethyl-N-((5-(trifluoromethyl)pyridin-2-yl)methyl)quinoline-6-carbohydrazide] | 3130 nM |  | 210 nM | 14.92 | 4 nM |
| Cc1cc2cc(C(=O)N(Cc3ccc(C(F)(F)F)cn3)Nc3ncccn3)ccc2nc1N [Example 59, 2-amino-3-methyl-N'-(pyrimidin-2-yl)-N-((5-(trifluoromethyl)pyridin-2-yl)methyl) quinoline-6-carbohydrazide] | 4220 nM |  | 257 nM | 16.43 | 2 nM |
| Cc1cc2cc(C(=O)N(Cc3ccc(Br)cn3)N(C)c3ncccc3C(F)(F)F)ccc2nc1N [Example 60, 2-amino-N-((5-bromopyridin-2-yl)methyl)-N',3-dimethyl-N'-(3-(trifluoromethyl)pyridin-2-yl)quinoline-6-carbohydrazide] | 708 nM |  | 60 nM | 11.80 | 2.3 nM |
| Cc1cc2cc(C(=O)N(Cc3cc(C(F)(F)F)ccn3)N(C)c3ncccn3)ccc2nc1N [Example 61, 2-amino-N',3-dimethyl-N'-(pyrimidin-2-yl)-N-((4-(trifluoromethyl)pyridin-2-yl)methyl)quinoline-6-carbohydrazide] | 2390 nM |  | 126 nM | 18.95 | 2.4 nM |
| [2H]C([2H])([2H])N(c1nccc2nccnc12)N(Cc1ccc(C(F)(F)F)cn1)C(=O)c1ccc2nc(N)c(C)cc2c1 [Example 62] | 1500 nM |  | 86 nM | 17.42 | 5.1 nM |
| [2H]C([2H])([2H])N(c1nccc2nccnc12)N(Cc1ccc(Br)cn1)C(=O)c1ccc2nc(N)c(C)cc2c1 [Example 63, 2-amino-N-((5-bromopyridin-2-yl)methyl)-3-methyl-N'-(methyl-d3)-N'-(pyrido[3,4-b]pyrazin-5-yl)quinoline-6-carbohydrazide] | 1010 nM |  | 53 nM | 19.02 | 3.2 nM |
| [2H]C([2H])([2H])N(c1ncccn1)N(Cc1ccc(Br)cn1)C(=O)c1ccc2nc(N)c(C)cc2c1 [Example 64, 2-amino-N-((5-bromopyridin-2-yl)methyl)-3-methyl-N'-(methyl-d3)-N'-(pyrimidin-2-yl)quinoline-6-carbohydrazide] | 918 nM |  | 38 nM | 24.16 | 1.7 nM |
| Cc1cc2cc(C(=O)N(Cc3ccc(C(F)(F)F)cn3)N(c3nccc4nccnc34)C3CC3)ccc2nc1N [Example 65, 2-amino-N'-cyclopropyl-3-methyl-N'-(pyrido[3,4-b]pyrazin-5-yl)-N-((5-(trifluoromethyl)pyridin-2-yl)methyl)quinoline-6-carbohydrazide] | 2150 nM |  | 48 nM | 44.77 | 4 nM |
| Cc1cc2cc(C(=O)N(Cc3ccc(C(F)(F)F)cn3)N(C)c3ncccc3Cl)ccc2nc1N [Example 66, 2-amino-N'-(3-chloropyridin-2-yl)-N',3-d imethyl-N-((5-(trifluoromethyl)pyridin-2-yl)methyl)quinoline-6-carbohydrazide] | 1990 nM |  | 124 nM | 16.06 | 3.9 nM |
